From the kinase profiling compilation of Christmann-Franck et al. (2016)

What was measured:
Experiment in all cases: KINOMEscan competition binding
Settings in all cases: compound 10.0 µM
ACVR1 (human) = ACVR1 (human) (UniProt Q04771)
ADCK3 (human) = ADCK3 (human) (UniProt Q8NI60)
AXL (human) = AXL (human) (UniProt P30530)
CLK3 (human) = CLK3 (human) (UniProt P49761)
DYRK1A (human) = DYRK1A (human) (UniProt Q13627)
EPHA3 (human) = EPHA3 (human) (UniProt P29320)
FES (human) = FES (human) (UniProt P07332)
GRK1 (human) = GRK1 (human) (UniProt Q15835)
GSK3B (human) = GSK3B (human) (UniProt P49841)
ICK (human) = ICK (human) (UniProt Q9UPZ9)
INSR (human) = INSR (human) (UniProt P06213)
[1] = molecular target: JAK2 JH1 catalytic (human) (UniProt O60674)
LIMK1 (human) = LIMK1 (human) (UniProt P53667)
MAK (human) = MAK (human) (UniProt P20794)
MAP4K3 (human) = MAP4K3 (human) (UniProt Q8IVH8)
MAPK4 (human) = MAPK4 (human) (UniProt P31152)
MAPK6 (human) = MAPK6 (human) (UniProt Q16659)
MAPK7 (human) = MAPK7 (human) (UniProt Q13164)
MELK (human) = MELK (human) (UniProt Q14680)
MST1R (human) = MST1R (human) (UniProt Q04912)
MST4 (human) = MST4 (human) (UniProt Q9P289)
MYLK4 (human) = MYLK4 (human) (UniProt Q86YV6)
NEK1 (human) = NEK1 (human) (UniProt Q96PY6)
PAK7 (human) = PAK7 (human) (UniProt Q9P286)
PI4KB (human) = PI4KB (human) (UniProt Q9UBF8)
PIK3CA (human) = PIK3CA (human) (UniProt P42336)
PIM1 (human) = PIM1 (human) (UniProt P11309)
PTK6 (human) = PTK6 (human) (UniProt Q13882)
ROCK1 (human) = ROCK1 (human) (UniProt Q13464)
ROS1 (human) = ROS1 (human) (UniProt P08922)
SGK110 (human) = SGK110 (human) (UniProt P0C264)
STK17A (human) = STK17A (human) (UniProt Q9UEE5)
STK3 (human) = STK3 (human) (UniProt Q13188)
STK38 (human) = STK38 (human) (UniProt Q15208)
TAOK1 (human) = TAOK1 (human) (UniProt Q7L7X3)
TNK2 (human) = TNK2 (human) (UniProt Q07912)
TTK (human) = TTK (human) (UniProt P33981)
WEE2 (human) = WEE2 (human) (UniProt P0C1S8)
YES1 (human) = YES1 (human) (UniProt P07947)
YES1 (human), sequence (P07947 whole entry, looked up): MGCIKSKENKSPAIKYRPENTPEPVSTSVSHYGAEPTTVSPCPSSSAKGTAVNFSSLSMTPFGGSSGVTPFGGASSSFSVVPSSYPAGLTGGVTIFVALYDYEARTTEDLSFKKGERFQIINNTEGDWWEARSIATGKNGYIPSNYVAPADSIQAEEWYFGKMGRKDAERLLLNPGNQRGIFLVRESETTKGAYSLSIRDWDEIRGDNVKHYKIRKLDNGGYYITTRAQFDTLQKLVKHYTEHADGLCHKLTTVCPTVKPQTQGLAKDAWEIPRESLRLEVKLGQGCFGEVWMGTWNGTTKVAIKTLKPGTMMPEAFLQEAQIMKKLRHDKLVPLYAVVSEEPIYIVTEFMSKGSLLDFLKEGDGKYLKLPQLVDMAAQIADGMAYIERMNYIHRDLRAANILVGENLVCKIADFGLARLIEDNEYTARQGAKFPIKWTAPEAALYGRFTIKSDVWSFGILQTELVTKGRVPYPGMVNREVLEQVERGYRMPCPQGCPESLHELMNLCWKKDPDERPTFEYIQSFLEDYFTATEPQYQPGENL

TTK (human), sequence (P33981 whole entry, looked up): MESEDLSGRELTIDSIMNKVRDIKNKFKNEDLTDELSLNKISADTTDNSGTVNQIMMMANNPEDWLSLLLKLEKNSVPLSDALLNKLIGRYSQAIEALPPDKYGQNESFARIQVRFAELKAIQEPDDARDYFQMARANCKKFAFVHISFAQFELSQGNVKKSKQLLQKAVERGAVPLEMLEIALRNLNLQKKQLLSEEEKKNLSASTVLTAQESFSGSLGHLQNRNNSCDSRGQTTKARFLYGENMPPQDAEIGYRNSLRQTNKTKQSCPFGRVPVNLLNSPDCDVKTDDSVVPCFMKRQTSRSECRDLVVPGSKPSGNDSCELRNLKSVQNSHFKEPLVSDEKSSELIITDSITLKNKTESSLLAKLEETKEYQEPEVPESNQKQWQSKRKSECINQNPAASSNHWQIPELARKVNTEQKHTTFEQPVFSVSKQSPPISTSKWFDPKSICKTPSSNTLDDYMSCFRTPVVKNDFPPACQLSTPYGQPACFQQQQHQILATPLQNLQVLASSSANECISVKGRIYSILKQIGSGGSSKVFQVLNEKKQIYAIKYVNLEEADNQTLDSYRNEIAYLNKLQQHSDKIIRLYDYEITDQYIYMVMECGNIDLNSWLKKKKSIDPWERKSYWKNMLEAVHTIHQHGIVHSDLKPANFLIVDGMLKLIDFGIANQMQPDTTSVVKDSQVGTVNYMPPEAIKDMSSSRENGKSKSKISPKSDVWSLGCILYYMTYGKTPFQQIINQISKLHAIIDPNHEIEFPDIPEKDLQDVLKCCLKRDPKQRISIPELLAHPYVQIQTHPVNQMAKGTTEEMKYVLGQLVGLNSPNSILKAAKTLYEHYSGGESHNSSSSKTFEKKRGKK
PIK3CA (human), sequence (P42336 whole entry, looked up): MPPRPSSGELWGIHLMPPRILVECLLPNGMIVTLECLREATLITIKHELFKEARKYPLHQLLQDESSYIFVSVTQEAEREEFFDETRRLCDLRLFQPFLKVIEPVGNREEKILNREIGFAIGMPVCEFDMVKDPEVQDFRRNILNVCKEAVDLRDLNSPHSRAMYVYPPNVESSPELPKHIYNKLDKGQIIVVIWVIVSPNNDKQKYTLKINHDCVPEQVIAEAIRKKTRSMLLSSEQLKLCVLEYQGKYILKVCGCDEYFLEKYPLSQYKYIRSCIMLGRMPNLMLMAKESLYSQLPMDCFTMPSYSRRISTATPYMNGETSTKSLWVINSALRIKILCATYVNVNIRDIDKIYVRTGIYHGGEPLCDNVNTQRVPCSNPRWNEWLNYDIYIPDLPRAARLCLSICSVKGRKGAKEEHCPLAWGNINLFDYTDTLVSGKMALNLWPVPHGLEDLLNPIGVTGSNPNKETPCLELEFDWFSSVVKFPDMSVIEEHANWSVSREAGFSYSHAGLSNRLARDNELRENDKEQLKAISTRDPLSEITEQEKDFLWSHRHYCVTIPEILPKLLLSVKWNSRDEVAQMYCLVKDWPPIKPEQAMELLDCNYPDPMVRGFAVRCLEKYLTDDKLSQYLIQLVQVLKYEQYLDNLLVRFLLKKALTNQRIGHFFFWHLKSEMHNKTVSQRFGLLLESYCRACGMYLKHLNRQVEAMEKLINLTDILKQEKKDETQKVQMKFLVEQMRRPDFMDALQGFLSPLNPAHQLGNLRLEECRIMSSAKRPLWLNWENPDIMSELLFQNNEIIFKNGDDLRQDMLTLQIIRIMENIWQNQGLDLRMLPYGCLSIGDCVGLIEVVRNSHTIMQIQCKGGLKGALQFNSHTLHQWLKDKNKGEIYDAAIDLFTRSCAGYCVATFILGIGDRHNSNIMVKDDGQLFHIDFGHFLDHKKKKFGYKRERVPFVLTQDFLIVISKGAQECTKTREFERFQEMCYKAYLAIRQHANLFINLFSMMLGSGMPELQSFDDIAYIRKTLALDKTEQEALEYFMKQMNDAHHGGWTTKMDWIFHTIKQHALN
STK3 (human), sequence (Q13188 whole entry, looked up): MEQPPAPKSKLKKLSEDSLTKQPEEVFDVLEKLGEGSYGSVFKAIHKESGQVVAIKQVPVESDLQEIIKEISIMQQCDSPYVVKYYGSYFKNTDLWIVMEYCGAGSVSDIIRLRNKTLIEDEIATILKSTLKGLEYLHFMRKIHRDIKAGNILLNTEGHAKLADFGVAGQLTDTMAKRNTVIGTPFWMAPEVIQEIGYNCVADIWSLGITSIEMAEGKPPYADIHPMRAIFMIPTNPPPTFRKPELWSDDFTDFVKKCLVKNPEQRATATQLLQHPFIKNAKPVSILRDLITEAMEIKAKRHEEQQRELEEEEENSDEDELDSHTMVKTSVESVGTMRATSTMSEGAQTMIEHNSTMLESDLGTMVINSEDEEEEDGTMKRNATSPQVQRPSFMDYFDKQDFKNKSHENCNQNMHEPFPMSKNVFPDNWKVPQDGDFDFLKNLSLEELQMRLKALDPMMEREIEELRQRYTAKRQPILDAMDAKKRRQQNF
PIM1 (human), sequence (P11309 whole entry, looked up): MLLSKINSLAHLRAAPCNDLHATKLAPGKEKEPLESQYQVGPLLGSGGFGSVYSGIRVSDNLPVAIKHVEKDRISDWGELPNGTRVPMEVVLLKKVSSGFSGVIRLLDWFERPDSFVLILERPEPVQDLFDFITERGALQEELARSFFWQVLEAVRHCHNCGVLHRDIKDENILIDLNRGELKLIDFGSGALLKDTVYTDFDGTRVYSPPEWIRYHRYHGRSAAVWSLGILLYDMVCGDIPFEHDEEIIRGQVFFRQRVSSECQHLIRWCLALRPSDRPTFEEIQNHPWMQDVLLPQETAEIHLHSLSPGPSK
MAPK7 (human), sequence (Q13164 whole entry, looked up): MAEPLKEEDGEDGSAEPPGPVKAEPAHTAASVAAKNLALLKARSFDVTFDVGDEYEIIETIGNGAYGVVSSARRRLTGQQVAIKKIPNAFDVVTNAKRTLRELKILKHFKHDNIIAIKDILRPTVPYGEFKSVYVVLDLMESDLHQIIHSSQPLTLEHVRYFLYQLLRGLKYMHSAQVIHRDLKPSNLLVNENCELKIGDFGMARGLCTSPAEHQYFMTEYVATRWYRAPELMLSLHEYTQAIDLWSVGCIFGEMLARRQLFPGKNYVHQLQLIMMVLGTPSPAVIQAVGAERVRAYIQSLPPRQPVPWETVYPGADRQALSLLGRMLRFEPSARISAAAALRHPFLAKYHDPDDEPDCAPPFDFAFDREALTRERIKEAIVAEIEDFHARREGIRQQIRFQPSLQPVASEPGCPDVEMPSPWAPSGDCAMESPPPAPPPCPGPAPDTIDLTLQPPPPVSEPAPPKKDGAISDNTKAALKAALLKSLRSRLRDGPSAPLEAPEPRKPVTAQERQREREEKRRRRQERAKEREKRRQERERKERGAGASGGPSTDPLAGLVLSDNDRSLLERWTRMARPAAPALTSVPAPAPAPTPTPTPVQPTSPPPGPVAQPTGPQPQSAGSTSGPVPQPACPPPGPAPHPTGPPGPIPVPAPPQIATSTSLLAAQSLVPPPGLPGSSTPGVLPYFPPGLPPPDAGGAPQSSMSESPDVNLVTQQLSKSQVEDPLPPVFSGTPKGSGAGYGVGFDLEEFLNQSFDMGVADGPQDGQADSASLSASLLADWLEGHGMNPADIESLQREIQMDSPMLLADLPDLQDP
SGK110 (human), sequence (P0C264 whole entry, looked up): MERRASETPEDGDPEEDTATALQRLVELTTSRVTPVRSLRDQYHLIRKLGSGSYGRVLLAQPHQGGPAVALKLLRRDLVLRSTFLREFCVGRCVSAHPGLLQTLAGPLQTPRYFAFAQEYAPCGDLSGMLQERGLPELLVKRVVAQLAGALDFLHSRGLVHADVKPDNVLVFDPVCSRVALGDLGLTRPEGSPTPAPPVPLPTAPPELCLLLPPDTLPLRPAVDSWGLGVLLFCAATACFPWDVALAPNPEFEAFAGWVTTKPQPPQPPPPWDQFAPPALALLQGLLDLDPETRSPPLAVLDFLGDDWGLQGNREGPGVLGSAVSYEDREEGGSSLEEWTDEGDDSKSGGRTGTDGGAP
CLK3 (human), sequence (P49761 whole entry, looked up): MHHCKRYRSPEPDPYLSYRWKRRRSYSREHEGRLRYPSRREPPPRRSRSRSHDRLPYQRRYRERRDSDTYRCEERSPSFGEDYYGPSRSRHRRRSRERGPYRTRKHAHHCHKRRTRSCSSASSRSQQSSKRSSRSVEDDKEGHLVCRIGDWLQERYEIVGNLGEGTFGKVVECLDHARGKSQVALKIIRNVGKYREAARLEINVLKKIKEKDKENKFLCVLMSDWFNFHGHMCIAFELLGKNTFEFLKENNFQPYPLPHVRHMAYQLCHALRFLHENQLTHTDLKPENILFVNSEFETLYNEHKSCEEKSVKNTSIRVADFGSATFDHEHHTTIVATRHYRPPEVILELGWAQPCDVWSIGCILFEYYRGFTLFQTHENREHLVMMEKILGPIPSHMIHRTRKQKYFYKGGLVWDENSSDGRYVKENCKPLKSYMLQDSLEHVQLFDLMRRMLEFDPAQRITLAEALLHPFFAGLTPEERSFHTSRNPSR

Row | kinase still bound, per cent of control (ACVR1 (human)) [%] | kinase still bound, per cent of control (ADCK3 (human)) [%] | kinase still bound, per cent of control (AXL (human)) [%] | kinase still bound, per cent of control (CLK3 (human)) [%] | kinase still bound, per cent of control (EPHA3 (human)) [%] | kinase still bound, per cent of control (FES (human)) [%] | kinase still bound, per cent of control (GSK3B (human)) [%] | kinase still bound, per cent of control (INSR (human)) [%] | kinase still bound, per cent of control [1] [%] | kinase still bound, per cent of control (LIMK1 (human)) [%] | kinase still bound, per cent of control (MAP4K3 (human)) [%] | kinase still bound, per cent of control (MAPK4 (human)) [%] | kinase still bound, per cent of control (MAPK6 (human)) [%] | kinase still bound, per cent of control (MAPK7 (human)) [%] | kinase still bound, per cent of control (MELK (human)) [%] | kinase still bound, per cent of control (MST4 (human)) [%] | kinase still bound, per cent of control (MYLK4 (human)) [%] | kinase still bound, per cent of control (NEK1 (human)) [%] | kinase still bound, per cent of control (PAK7 (human)) [%] | kinase still bound, per cent of control (PIK3CA (human)) [%] | Structure (SMILES) | also measured
1 | 100 | 100 | 100 | 100 | 9.5 | 100 | 100 | 100 | 100 | 100 | 100 | 100 | 100 | 100 | 100 | 100 | 100 | 100 | 100 | 100 | Cc1cn(-c2cc(C(=O)Nc3ccc(C)c(NC(=O)c4ccno4)c3)cc(C(F)(F)F)c2)cn1 | kinase still bound, per cent of control (DYRK1A (human)): 100%; kinase still bound, per cent of control (GRK1 (human)): 100%; kinase still bound, per cent of control (ICK (human)): 100%; kinase still bound, per cent of control (MAK (human)): 100%; kinase still bound, per cent of control (MST1R (human)): 100%; kinase still bound, per cent of control (PI4KB (human)): 100%; kinase still bound, per cent of control (PIM1 (human)): 100%; kinase still bound, per cent of control (PTK6 (human)): 24%; kinase still bound, per cent of control (ROCK1 (human)): 100%; kinase still bound, per cent of control (ROS1 (human)): 100%; kinase still bound, per cent of control (SGK110 (human)): 100%; kinase still bound, per cent of control (STK17A (human)): 100%; kinase still bound, per cent of control (STK3 (human)): 100%; kinase still bound, per cent of control (STK38 (human)): 100%; kinase still bound, per cent of control (TAOK1 (human)): 100%; kinase still bound, per cent of control (TNK2 (human)): 100%; kinase still bound, per cent of control (TTK (human)): 100%; kinase still bound, per cent of control (WEE2 (human)): 100%; kinase still bound, per cent of control (YES1 (human)): 13%
2 | 100 | 100 | 100 | 100 | 0.1 | 0.85 | 100 | 100 | 2.3 | 2.8 | 100 | 100 | 100 | 15 | 100 | 100 | 100 | 100 | 100 | 100 | COc1ccc(N(C(=O)Oc2cc(C(=O)Nc3cccc(C(F)(F)F)c3)ccc2C)c2ccnc(Nc3ccc(N4CCN(C)CC4)cc3)n2)c(OC)c1 | kinase still bound, per cent of control (PIM1 (human)): 100%; kinase still bound, per cent of control (PTK6 (human)): 4%; kinase still bound, per cent of control (ROS1 (human)): 1.9%; kinase still bound, per cent of control (STK17A (human)): 100%; kinase still bound, per cent of control (STK3 (human)): 100%; kinase still bound, per cent of control (TNK2 (human)): 4%; kinase still bound, per cent of control (TTK (human)): 100%; kinase still bound, per cent of control (YES1 (human)): 0.45%
3 | 100 | 100 | 4 | 19 | 25 | 100 | 100 | 5.1 | 100 | 100 | 100 | 100 | 100 | 100 | 100 | 100 | 100 | 100 | 100 | 100 | COc1cc(C)c(Sc2cnc(NC(=O)c3ccc(CNC(C)C(C)C)cc3)s2)cc1C(=O)N1CCN(C(C)=O)CC1 (stereo unspecified) | kinase still bound, per cent of control (MST1R (human)): 100%; kinase still bound, per cent of control (PIM1 (human)): 100%; kinase still bound, per cent of control (PTK6 (human)): 100%; kinase still bound, per cent of control (ROS1 (human)): 100%; kinase still bound, per cent of control (SGK110 (human)): 100%; kinase still bound, per cent of control (STK17A (human)): 100%; kinase still bound, per cent of control (STK3 (human)): 100%; kinase still bound, per cent of control (TAOK1 (human)): 16%; kinase still bound, per cent of control (TNK2 (human)): 100%; kinase still bound, per cent of control (TTK (human)): 100%; kinase still bound, per cent of control (WEE2 (human)): 3.6%; kinase still bound, per cent of control (YES1 (human)): 12%
4 | 100 | 0.1 | 8.6 | 8.3 | 100 | 2.3 | 100 | 0.05 | 100 | 100 | 100 | 100 | 100 | 100 | 100 | 100 | 100 | 100 | 100 | 100 | COc1cc(N2CCC(C(N)=O)CC2)ccc1Nc1nc(N)c(Cl)c(Nc2ccccc2S(=O)(=O)C(C)C)n1 | kinase still bound, per cent of control (MST1R (human)): 100%; kinase still bound, per cent of control (PIM1 (human)): 100%; kinase still bound, per cent of control (PTK6 (human)): 3%; kinase still bound, per cent of control (ROS1 (human)): 3.2%; kinase still bound, per cent of control (SGK110 (human)): 100%; kinase still bound, per cent of control (STK17A (human)): 100%; kinase still bound, per cent of control (STK3 (human)): 100%; kinase still bound, per cent of control (TAOK1 (human)): 100%; kinase still bound, per cent of control (TNK2 (human)): 0.2%; kinase still bound, per cent of control (TTK (human)): 7%; kinase still bound, per cent of control (WEE2 (human)): 100%; kinase still bound, per cent of control (YES1 (human)): 100%
